Where two headings read alike, the source gives them in different places.

Among the data in US20250084097A1, “MACROCYCLIC AMIDE COMPOUNDS AND APPLICATION THEREOF” (Medshine Discovery Inc., priority 2021, published 2025) are GI50 values, retold here.

Common to all, as to experiment: Cell proliferation inhibition, CellTiter-Glo
Holding throughout (assay type): cell-based
For orientation: ATP-based viability assays read luminescence as a measure of living cells.

One assay has as its target Ba/F3-FL-EGFR (L858R) (Homo sapiens, UniProt P00533, L858R, cells depend on it). The following applies: 72 hours, read-out: Cell half-maximal inhibition concentration IC50 Ba/F3-FL-EGFR (L858R). The method, then: (§1) AdenosineTri-Phosphate (ATP) is an energy carrier shared by various life activities in nature, and is the smallest unit of energy storage and transfer. The CellTiter-Glo™ living cell assay kit uses luciferase as a detector, and luciferase requires the participation of ATP in the process of luminescence. CellTiter-Glo™ reagent is added to a cell culture medium, and the luminescence value is measured. The light signal is directly proportional to the amount of ATP in the system, and ATP is positively correlated with the number of living cells. Therefore, cell proliferation can be detected by detecting ATP content with the CellTiter-Glo kit. In this assay, the cell lines were Ba/F3-FL-EGFR (L858R/T790M/C797S), Ba/F3-FL-EGFR (WT), Ba/F3-FL-EGFR (L858R), Ba/F3-FL-EGFR (del19-S752-I759), Ba/F3-FL-EGFR (del19-E746-A750/T790M/C797S), Ba/F3-FL-EGFR (L858R/T790M), Ba/F3-FL-EGFR (del19-E746-A750/T790M), Ba/F3-TEL-EGFR (L858R/C797S), Ba/F3-FL-EGFR (del19-E746-A750/C797S) stably transfected cell lines.
(§2) The cell lines were cultured in an incubator at 37° C. and 5% CO2. The cells were periodically passaged, and cells in logarithmic growth phase were taken for plating.
(§3) a) DMSO was used to prepare a 10 mM solution of the compound to be tested, and then the compound to be tested was diluted to 0.3 or 1 mM with DMSO.
(§4) b) Preparation of 1000× compound storage plate (tube): DMSO was used to dilute by 3-fold gradient from the highest concentration to the lowest concentration, with a total of 9 concentrations.
(§5) c) Preparation of 20× compound working solution: 49 μL of cell culture medium was added to a flat-bottomed 96-well transparent drug plate, and 1 μL of compound was pipetted from the 1000× compound storage plate to the cell culture medium of the 96-well transparent drug plate. 1 μL of DMSO was added to the vehicle control. After adding compound or DMSO, the well content was mixed to uniform by aspiration and expelling with pipette.
(§6) a) Cells were stained with trypan blue and viable cells were counted. The cell viability rate was required to be above 90%.
(§7) b) 95 μL of cell suspension (2000 cells/well) was added to each well of the compound detection cell plate, and culture medium without cells (containing 0.1% DMSO) was added to the Min control well.
(§8) c) Dosing in the compound detection cell plate: 5 μL of 20× compound working solution was added to the cell culture plate. 5 μL of DMSO-cell culture mixture was added to the Max control. The final concentration of DMSO was 0.1%.
(§9) d) The culture plate was incubated in an incubator at 37° C., 5% CO2 for 72 hours.
(§10) The following steps were performed according to the instruction of Promega CellTiter-Glo luminescence cell viability detection kit (Promega-G7573). • a) The CellTiter-Glo buffer was thawed and allowed to stand to reach room temperature; • b) CellTiter-Glo substrate was allowed to stand to reach room temperature; • c) CellTiter-Glo buffer was added to CellTiter-Glo substrate in a bottle to dissolve the substrate to formulate CellTiter-Glo working solution; • d) The working solution was vortexed slowly for fully dissolution; • e) The cell culture plates were taken out and allowed to stand for 10 minutes to equilibrate to room temperature; • f) 50 μL (equal to half the volume of cell culture solution in each well) of Cell Titer-Glo working solution was added into each well. • g) The culture plates were shaken on an orbital shaker for 2 minutes to induce cell lysis; • h) The culture plates were left at room temperature for 10 minutes to stabilize the luminescence signal; • i) The luminous signal was detected on the PerkinElmer EnVision®2105 plate reader.
(§11) By PerkinElmer EnVision®2105 reading, the corresponding […] value RLU for each well was yielded.
(§12) Cell proliferation inhibition rate (Inhibition Rate) data were processed using the following formula:
(§13) Inhibition Rate (Inh %)=100−(RLUDrug−RLUMin)/(RLUMax−RLUMin)*100%. […]

Assay [1] concerns the target Ba/F3-FL-EGFR (L858R/T790M) (Homo sapiens, UniProt P00533, T790M/L858R, cells depend on it). As for the experimental part:
as §1, §2, §3, §4, §5, §6, §7, §8, §9, §10, §11, §12, §13

The target of the next assay is Ba/F3-FL-EGFR (WT) (Homo sapiens, UniProt P00533). The method, then: as §1, §2, §3, §4, §5, §6, §7, §8, §9, §10, §11, §12, §13
Sequence of Ba/F3-FL-EGFR (WT) (P00533 whole entry, stated change not applied): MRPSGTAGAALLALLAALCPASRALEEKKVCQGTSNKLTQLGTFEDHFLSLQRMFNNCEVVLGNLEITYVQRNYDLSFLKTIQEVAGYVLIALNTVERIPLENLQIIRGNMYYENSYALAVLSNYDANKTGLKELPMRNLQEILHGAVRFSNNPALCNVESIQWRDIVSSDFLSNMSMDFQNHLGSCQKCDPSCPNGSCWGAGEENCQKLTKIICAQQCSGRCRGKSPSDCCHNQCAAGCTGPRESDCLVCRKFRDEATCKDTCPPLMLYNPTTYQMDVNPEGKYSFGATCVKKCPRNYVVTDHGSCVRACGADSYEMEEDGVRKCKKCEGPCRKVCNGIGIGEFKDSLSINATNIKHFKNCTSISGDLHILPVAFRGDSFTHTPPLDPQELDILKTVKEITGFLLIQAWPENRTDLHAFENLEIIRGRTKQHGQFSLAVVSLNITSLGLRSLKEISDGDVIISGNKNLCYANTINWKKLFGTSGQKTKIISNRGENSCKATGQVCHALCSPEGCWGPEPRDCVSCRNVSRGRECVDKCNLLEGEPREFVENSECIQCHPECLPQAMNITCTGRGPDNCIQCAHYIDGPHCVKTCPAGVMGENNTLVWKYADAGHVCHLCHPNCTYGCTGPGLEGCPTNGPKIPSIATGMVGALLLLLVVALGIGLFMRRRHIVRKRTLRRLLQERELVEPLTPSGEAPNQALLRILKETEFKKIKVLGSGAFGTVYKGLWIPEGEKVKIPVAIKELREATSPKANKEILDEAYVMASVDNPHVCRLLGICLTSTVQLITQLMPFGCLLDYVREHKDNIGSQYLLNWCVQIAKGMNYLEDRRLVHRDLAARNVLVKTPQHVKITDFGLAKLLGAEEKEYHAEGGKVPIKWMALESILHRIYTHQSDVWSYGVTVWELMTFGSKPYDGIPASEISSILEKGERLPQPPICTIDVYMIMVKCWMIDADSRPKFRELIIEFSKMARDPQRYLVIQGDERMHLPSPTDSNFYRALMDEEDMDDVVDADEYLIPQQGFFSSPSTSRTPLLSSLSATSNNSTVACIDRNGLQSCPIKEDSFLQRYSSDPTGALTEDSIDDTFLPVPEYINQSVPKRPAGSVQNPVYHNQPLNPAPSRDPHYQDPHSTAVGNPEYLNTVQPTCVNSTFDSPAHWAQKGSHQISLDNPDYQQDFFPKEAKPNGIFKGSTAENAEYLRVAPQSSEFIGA
Assay [2] addresses Ba/F3-FL-EGFR (del19-E746-A750/T790M) (Homo sapiens, UniProt P00533, DEL746-750/T790M, cells depend on it). As for the experimental part: as §1, §2, §3, §4, §5, §6, §7, §8, §9, §10, §11, §12, §13
The target in assay [3] is Ba/F3-FL-EGFR (del19-E746-A750/T790M/C797S) (Homo sapiens, UniProt P00533, DEL746-750/T790M/C797S, cells depend on it). The following applies: 72 hours, read-out: Cell half-maximal inhibition concentration IC50 Ba/F3-FL-EGFR (del19-E746-A750/T790M/C797S). As for the experimental part:
as §1, §2, §3, §4, §5, §6, §7, §8, §9, §10, §11, §12, §13

Assay [4] has as its target Ba/F3-FL-EGFR (del19-S752-I759) (Homo sapiens, UniProt P00533, DEL752-759, cells depend on it). The conditions noted are these: 72 hours, read-out: Cell half-maximal inhibition concentration IC50 Ba/F3-FL-EGFR (del19-S752-I759). As for the experimental part: as §1, §2, §3, §4, §5, §6, §7, §8, §9, §10, §11, §12, §13
The target in assay [5] is T1, Ba/F3-TEL-EGFR (L858R/C797S) (Homo sapiens, UniProt P00533, C797S/L858R, cells depend on it).
T1 construct: fused on or other part: TEL (ETV6) N-terminal oligomerising part fused to the EGFR kinase part; P41212 (Transcription factor ETV6)
The method, then: as §1, §2, §3, §4, §5, §6, §7, §8, §9, §10, §11, §12, §13

[6] abbreviates: 72 hours, read-out: Cell half-maximal inhibition concentration IC50 Ba/F3-FL-EGFR (L858R/T790M).
The mark [7] stands for this setting: 72 hours, read-out: Cell half-maximal inhibition concentration IC50 Ba/F3-FL-EGFR (WT).
Setting [8] is: 72 hours, read-out: Cell half-maximal inhibition concentration IC50 Ba/F3-FL-EGFR (del19-E746-A750/T790M).
Where [9] appears, read: 72 hours, read-out: Cell half-maximal inhibition concentration IC50 Ba/F3-TEL-EGFR (L858R/C797S).

Sequence of Ba/F3-FL-EGFR (L858R/T790M) (P00533 whole entry T790M/L858R): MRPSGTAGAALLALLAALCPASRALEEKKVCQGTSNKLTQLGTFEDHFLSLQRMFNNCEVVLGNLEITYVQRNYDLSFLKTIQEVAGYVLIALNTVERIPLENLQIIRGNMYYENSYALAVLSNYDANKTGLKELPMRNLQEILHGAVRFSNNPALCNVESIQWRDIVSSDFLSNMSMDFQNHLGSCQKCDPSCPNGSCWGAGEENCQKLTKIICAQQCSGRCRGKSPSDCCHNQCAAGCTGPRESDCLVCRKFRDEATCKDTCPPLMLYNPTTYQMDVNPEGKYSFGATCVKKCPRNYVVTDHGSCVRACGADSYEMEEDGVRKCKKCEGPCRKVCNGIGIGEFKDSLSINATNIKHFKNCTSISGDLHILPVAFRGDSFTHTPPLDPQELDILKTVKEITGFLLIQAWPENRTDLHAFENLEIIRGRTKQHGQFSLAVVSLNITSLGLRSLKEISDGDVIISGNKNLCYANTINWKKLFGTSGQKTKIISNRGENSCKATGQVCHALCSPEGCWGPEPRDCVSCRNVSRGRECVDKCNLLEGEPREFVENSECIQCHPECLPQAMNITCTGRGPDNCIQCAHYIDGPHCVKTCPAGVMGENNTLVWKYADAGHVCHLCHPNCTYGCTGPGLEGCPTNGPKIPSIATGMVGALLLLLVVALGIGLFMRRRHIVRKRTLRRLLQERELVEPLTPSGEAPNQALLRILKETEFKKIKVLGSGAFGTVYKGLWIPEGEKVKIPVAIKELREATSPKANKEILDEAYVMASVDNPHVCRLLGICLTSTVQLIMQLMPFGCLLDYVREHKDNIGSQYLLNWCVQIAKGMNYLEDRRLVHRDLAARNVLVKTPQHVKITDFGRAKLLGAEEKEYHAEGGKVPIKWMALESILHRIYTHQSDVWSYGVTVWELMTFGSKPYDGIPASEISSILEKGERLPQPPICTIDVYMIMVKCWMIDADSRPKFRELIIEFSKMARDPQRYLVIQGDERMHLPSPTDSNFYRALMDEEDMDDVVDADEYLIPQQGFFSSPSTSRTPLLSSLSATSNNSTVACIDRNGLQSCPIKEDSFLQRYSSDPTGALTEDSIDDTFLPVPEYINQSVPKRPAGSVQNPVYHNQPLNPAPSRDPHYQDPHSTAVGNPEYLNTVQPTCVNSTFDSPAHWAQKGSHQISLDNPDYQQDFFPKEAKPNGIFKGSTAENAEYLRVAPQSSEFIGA
Sequence of Ba/F3-FL-EGFR (del19-E746-A750/T790M) (P00533 with tags, fused parts or gaps DEL746-750/T790M): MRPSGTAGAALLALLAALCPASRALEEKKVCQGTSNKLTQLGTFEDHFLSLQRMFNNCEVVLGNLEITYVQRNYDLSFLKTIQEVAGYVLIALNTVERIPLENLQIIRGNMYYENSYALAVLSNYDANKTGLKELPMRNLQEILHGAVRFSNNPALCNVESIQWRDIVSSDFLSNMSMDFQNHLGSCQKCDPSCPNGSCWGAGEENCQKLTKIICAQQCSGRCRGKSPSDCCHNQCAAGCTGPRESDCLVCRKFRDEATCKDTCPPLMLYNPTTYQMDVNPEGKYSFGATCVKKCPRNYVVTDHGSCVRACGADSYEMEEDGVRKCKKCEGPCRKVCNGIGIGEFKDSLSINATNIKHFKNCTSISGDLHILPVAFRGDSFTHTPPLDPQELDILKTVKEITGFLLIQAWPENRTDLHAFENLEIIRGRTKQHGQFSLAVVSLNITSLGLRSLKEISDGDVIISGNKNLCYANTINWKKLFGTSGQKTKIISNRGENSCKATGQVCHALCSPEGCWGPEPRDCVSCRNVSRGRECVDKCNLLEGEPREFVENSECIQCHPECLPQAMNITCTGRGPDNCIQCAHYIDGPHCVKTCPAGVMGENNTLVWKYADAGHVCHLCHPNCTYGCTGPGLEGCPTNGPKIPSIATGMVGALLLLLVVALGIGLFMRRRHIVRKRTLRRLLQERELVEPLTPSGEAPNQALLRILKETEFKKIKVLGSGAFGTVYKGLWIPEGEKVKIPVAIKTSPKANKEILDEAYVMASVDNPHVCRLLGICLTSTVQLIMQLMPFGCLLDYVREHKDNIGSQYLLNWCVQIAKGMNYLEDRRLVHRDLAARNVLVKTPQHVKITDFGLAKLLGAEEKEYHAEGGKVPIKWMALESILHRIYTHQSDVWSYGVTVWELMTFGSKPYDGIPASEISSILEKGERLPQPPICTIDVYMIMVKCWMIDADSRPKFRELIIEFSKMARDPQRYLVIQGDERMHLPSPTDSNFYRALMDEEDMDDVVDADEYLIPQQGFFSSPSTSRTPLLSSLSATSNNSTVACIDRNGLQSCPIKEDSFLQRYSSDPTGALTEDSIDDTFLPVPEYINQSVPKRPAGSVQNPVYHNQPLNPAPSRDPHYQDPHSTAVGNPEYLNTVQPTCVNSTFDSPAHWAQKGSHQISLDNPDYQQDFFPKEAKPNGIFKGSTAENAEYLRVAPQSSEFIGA
Sequence of Ba/F3-FL-EGFR (L858R) (P00533 whole entry L858R): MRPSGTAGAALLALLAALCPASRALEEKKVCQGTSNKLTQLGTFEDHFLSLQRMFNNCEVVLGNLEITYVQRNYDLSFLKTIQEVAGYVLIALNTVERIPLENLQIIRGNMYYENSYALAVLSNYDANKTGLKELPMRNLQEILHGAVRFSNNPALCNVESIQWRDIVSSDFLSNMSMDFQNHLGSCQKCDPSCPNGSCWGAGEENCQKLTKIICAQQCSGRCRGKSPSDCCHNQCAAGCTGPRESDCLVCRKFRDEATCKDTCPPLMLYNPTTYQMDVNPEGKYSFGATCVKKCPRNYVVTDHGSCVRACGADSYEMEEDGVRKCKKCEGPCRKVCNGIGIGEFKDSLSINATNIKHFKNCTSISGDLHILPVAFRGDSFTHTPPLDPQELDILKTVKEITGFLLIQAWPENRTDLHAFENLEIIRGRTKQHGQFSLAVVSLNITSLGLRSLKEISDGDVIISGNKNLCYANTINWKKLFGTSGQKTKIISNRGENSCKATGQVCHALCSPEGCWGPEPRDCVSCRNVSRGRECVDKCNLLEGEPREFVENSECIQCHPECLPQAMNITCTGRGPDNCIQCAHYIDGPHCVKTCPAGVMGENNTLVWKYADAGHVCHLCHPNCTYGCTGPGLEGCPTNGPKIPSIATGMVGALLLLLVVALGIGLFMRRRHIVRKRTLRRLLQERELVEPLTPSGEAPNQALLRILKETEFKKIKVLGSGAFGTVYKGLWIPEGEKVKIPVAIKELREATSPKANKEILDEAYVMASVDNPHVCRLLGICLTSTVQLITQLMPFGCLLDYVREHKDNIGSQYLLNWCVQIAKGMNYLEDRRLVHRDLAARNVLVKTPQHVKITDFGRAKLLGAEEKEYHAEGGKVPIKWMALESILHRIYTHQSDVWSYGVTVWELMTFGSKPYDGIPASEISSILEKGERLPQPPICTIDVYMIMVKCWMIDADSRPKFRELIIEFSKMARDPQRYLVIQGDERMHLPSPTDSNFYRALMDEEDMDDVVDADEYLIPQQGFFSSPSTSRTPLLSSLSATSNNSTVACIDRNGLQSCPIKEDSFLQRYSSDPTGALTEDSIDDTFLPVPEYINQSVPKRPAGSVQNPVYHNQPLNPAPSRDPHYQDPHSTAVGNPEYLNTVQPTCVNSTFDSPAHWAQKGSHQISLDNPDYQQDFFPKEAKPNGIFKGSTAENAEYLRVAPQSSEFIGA

For `Cc1cc2cc(n1)-c1cnn(C)c1OCCC[C@@H](C)CN1/C(=N/C2=O)Nc2ccc(N=S(C)(C)=O)cc21` [WX-006], the GI50 at Ba/F3-FL-EGFR (L858R) was 18.6 nM; in assay [1] (setting [6]) it was 12.9 nM; at Ba/F3-FL-EGFR (WT) (setting [7]) it was 111 nM; in assay [2] (setting [8]), 0.8 nM; in assay [3], 0.6 nM; in assay [4] it was 15.4 nM. Moreover, in assay [5] (setting [9]), the GI50 turned out to be 3.1 nM.

Turning to `Cc1cc2cc(n1)-c1cnn(C)c1OCCC[C@@H](C)CN1/C(=N/C2=O)Nc2ccc(N=S3(=O)CCOCC3)cc21` [WX-013], the GI50 in assay [1] (read-out: Cell half-maximal inhibition concentration IC50 Ba/F3-FL-EGFR (L858R/T790M), 72 hours) stood at 12.1 nM; on Ba/F3-FL-EGFR (WT) (read-out: Cell half-maximal inhibition concentration IC50 Ba/F3-FL-EGFR (WT), 72 hours) it was 123 nM; in assay [2] (read-out: Cell half-maximal inhibition concentration IC50 Ba/F3-FL-EGFR (del19-E746-A750/T790M), 72 hours), 0.6 nM; in assay [5] (read-out: Cell half-maximal inhibition concentration IC50 Ba/F3-TEL-EGFR (L858R/C797S), 72 hours), 3.1 nM.

On to `Cc1cc2cc(n1)-c1cnn(C)c1OC[C@H]1CC[C@H](C1)CN1/C(=N/C2=O)Nc2ccc(N=S(C)(C)=O)cc21` (single isomer, unassigned) [WX-027A], for which the GI50 at Ba/F3-FL-EGFR (L858R) is 39.6 nM; in assay [1] (setting [6]), 14.3 nM; at Ba/F3-FL-EGFR (WT) (setting [7]), 295 nM; in assay [2] (setting [8]) it was 1.9 nM; in assay [3], 1.2 nM; in assay [4] it was 12.9 nM. The GI50 in assay [5] (setting [9]) worked out at 5.2 nM.

Turning to `Cc1cc2cc(n1)-c1cnn(C)c1OCCC[C@@H](C)CN1/C(=N/C2=O)Nc2ccc(N=S(C)(C)=O)c(Cl)c21` [WX-019], the GI50 on Ba/F3-FL-EGFR (L858R) is 42.2 nM; in assay [1] (setting [6]) it was 16.8 nM; at Ba/F3-FL-EGFR (WT) (setting [7]) it was 303 nM; in assay [2] (setting [8]) it was 2.9 nM; in assay [3], 1.3 nM; in assay [4] it was 15.6 nM. The GI50 in assay [5] (setting [9]) was found to be 7.3 nM.

As to `Cc1cc2cc(n1)-c1cnn(C)c1OCCC[C@@H](C)CN1/C(=N/C2=O)Nc2ccc(N=S3(=O)CCCC3)cc21` [WX-010 (trifluoroacetate)], the GI50 at Ba/F3-FL-EGFR (L858R) was 14 nM; in assay [1] (setting [6]) it was 10.5 nM; at Ba/F3-FL-EGFR (WT) (setting [7]), 86 nM; in assay [2] (setting [8]) it was 0.4 nM; in assay [3] it was 0.8 nM; in assay [4] it was 11.2 nM. Further, in assay [5] (setting [9]), the GI50 is 3 nM.
